Data as given in patent US20100254928A1, “NOVEL COMPOSITION CONTAINING OZONIZED SURFACTANT” (priority 2007, published 2010).
Where “and” joins values, the source holds several entries; their conditions need not be identical. Identical values can stand only once.

System: Sprague-Dawley female rats
Test: Single dose oral toxicity test
Type: in vivo
Design: key to General conditions, 3 hours after administration / General conditions, 1 hour after administration / General conditions, 2 hours after administration: D: diarrhea; LS: loose stool; RF: reddish feces; DL: decrease in locomotor activity; *: the result was observed at 4 hours after administration
Conditions: for rats that developed symptoms on the administration day: transient, resolved by the 2nd day
Procedure: In order to roughly determine the lethal dose of the ozonized surfactant used for the present invention, an acute single dose oral toxicity test was performed according to “OECD Guideline for Testing of Chemicals, Acute Oral Toxicity-Acute Toxic Class Method”, Revised Guideline 423, adopted on Mar. 22, 1996 and revised on Dec. 17, 2001) by administering the solution A described in Example 4 to 12 Sprague-Dawley [Ctr: CD (SD), SPF ] female rats. Rats were divided into 4 groups each consisting of 3 rats. For each rat, an appropriate liquid volume was calculated based on individual body weight so that the solution A in an amount equivalent to 300 mg/kg of the ozonized surfactant was administered to 2 groups (6 rats) and the solution in an amount equivalent to 2000 mg/kg was administered to the other 2 groups (6 rats), with the use of a gastric tube for rats. (These groups will be hereinafter referred to as 300 mg/kg administration groups and 2000 mg/kg administration groups, respectively.) Counting the administration day as the 1st day, general conditions of the rats were observed until the 15th day, and the number of dead individuals was counted. The general conditions of all the animals were observed once before administration, intermittently for 1 hour after administration, and subsequently about every hour until 3 hours (of some rats until 4 hours) after administration. Since the 2nd day, the observation was repeated daily.
In the table, D, LS, RF and DL mean diarrhea, loose stool, reddish feces and decrease in locomotor activity, respectively.

[1] = 300 mg/kg administration group (6 rats)
[2] = 2000 mg/kg administration group (6 rats)
[3] = 2000 mg/kg oral, per animal, — = no symptom, listed as solution A

In the case of “Ozonized POE (10 EO) oleyl ether [Example 4]”, the “Death until the 15th day” value [1] is reported as “Death was not found”, the “rats that developed symptoms on the administration day” value [1] is reported as 1 rat and the “General conditions, 3 hours after administration” value (300 mg/kg oral, per animal, — = no symptom) is reported as “LS*”. For the same substance, the “Decrease in locomotor activity (number of animals)” value (“Decrease in locomotor activity” below) (2-15 days, all 12 rats) was 0, the “Diarrhea or loose stool (number of animals)” value (“Diarrhea or loose stool” for short) (2-15 days, all 12 rats) was 0 and the “Reddish feces (number of animals)” value (2-15 days, all 12 rats) was 0. For the same substance, the “Death until the 15th day” value [2] was “Death was not found”, the “rats that developed symptoms on the administration day” value [2] was 5 rats and the “General conditions, 1 hour after administration” value [3] was “D, DL and D, RF and D (2×)”. The “General conditions, 2 hours after administration” value [3] was “D”, the “General conditions, 3 hours after administration” value [3] was “D* and LS and D (2×)” and the “Body weight transition during the observation period” value (300 and 2000 mg/kg, 15 days) was “favorable”. For the same substance, the “Decrease in locomotor activity” value (1 hour, all 12 rats) was 2, the “Reddish feces (number of animals)” value (1 hour, all 12 rats) was 1 and the “Diarrhea or loose stool” value (1 hour, all 12 rats (300 and 2000 mg/kg)) was 4. The “Decrease in locomotor activity” value (2 hours, all 12 rats) was 0, the “Diarrhea or loose stool” value (2 hours, all 12 rats) was 3 and the “Reddish feces (number of animals)” value (2 hours, all 12 rats) was 0. For the same substance, the “Decrease in locomotor activity” value (3 hours, all 12 rats) was 0, the “Diarrhea or loose stool” value (3 hours, all 12 rats) was 5 and the “Reddish feces (number of animals)” value (3 hours, all 12 rats) was 0. The LD50 cut-off value (oral, rat) was “infinite” and the “acute toxicity classification of the GHS” value (oral, rat) was “Category 5 or does not correspond to any of the acute toxicity categories”.
